The term solubility denotes how much of the substance goes into solution per volume. By IC50 is commonly meant the point on the concentration scale where inhibition reaches its midpoint. For orientation: Kd means the free concentration of one partner at which half of the binding sites on the other are occupied at equilibrium, for simple one-to-one binding. The low end stands for higher affinity, the high end for lower affinity.

Series [1] can be described thus: Nephelometric solubility. Type of series: physicochemical. Particulars: DMEM + 10 % FCS, plasma or biological fluid, kinetic from dmso stock, maximal solubility in DMEM + 10 % FCS. The method, then:
Solubility of Scaff10 derivatives was assessed nephelometrically. Scaff10 derivatives are moderately to poorly soluble in aqueous solutions due to their large number of aromatic rings having lipophilic character. Details about NMR, LC/MS and HPLC characterization steps are given in the Supplemental Information.
Suppl. Tab. 3: Overview of all 55 Scaff10 derivatives.Structures labeld with 1 were commercially obtained. MW = molecular weight. logP = calculated partition coefficient (using […]
Solubility was assessed nephelometrically in DMEM + 10 % FCS + Scaff10 derivative with either 0.3 or 2 % DMSO
final concentration; values in µM indicate maximal solubility of the compound under the respective condition. Yield in % indicates total yield of the last step of chemical synthesis
for each of Scaff10 derivatives. n.d. = not determined. n.i. = not indicated.
Scaff10 MW Number of exp. 2 % DMSO 0.3 % DMSO Scaff10 Yield
Structure log P Disruption of the PPI IC50 [µM]
derivative [g/mol] in dupl. [µM] [µM] class [%]

Series [2] deals with T1, interaction of AKAP-Lbc/DHPH and RhoA (Homo sapiens, UniProt P61586).
T1 construct: His6-AKAP-Lbc/DHPH (aa 1972–2342 of human AKAP-Lbc; NP_006729.4); made in house
As to the kind of experiment: Homogeneous time-resolved fluorescence (HTRF) assay. Type of series: binding. The text has this:
Fig 2 The small molecule Scaff10-8 inhibits the interaction of the DH domain of AKAP-Lbc and RhoA. (A). Principle of homogenous time-resolved fluorescence (HTRF) assay. Recombinant His-AKAP-Lbc/DHPH and GST-RhoA were generated. The tags are recognized by specific antibodies coupled to fluorescent dyes. When the two proteins interact, donor and acceptor dyes of the antibodies are in close proximity, energy transfer occurs upon excitation at 320 nm and a FRET signal is detected (665 nm). If a compound disrupts the interaction of the DHPH domain and RhoA, the proximity of the fluorescent moieties remains insufficient for a FRET signal to occur. […] As expected, excess untagged Rho decreases the binding between GST-RhoA and His-AKAP-Lbc/DHPH in a dose-dependent manner (lower left panel). […] (C) The influence of Scaff10-8 on the interaction of RhoA with the recombinant DH domain of AKAP-Lbc in the absence of the PH domain was determined by Alpha screen. […] The IC50 value is indicated.
The assay was essentially carried out as described. Scaff10 derivatives were added to His6-AKAP-Lbc/DHPH protein (250 nM final concentration) in HTRF buffer (PBS; 4 mM MgCl2; 0.05% Tween 20) in 384 well plates (Proxiplate-384 Plus, white, #6008289; Perkin Elmer LAS, Rodgau, Germany). Concentrations of Scaff10 derivatives ranged between 1.56–200 μM (2% DMSO final concentration); HTRF buffer with 2% DMSO served as a control. GST-RhoA (30 nM final concentration) in HTRF buffer and anti-GST antibody coupled to terbium (donor) and anti-His6-tag antibody coupled to XL665 (acceptor) were added to all wells (final antibody concentration: 2 μg/ml). After 1 h incubation at room temperature in the dark, FRET signals were recorded at 620 and 665 nm using a Genios Pro plate reader (Tecan Austria GmbH, Grödig, AT) and the ratios of […] to 620 nm were calculated. Wells containing no compound were set to 100% interaction of AKAP-Lbc/DHPH with RhoA, wells containing GST-RhoA only (without His6-AKAP-Lbc/DHPH) were set to 0% interaction. To exclude any interference of the tags and/or antibodies with Scaff10 derivatives, a His6-GST fusion protein replaced the two tagged proteins in a control assay. Wells containing His6-GST fusion protein were set to 100% interaction of His6-GST, wells containing no fusion protein were set to 0% interaction.
A general note: Time-resolved FRET reads energy transfer from a long-lived donor to a nearby acceptor.

Series [3] addresses T2, 647-RhoA (Homo sapiens, UniProt P61586).
T2 construct: made in house
Briefly: Microscale thermophoresis (MST) with 647-RhoA. The format is binding. The method, then:
The final concentration of GFP-AKAP-Lbc/DHPH was set to 150 nM, 95% LED and 80% MST laser power. […] The samples were incubated in the dark for 1 h incubation at room temperature, and measured with 30 sec laser-on and 5 sec laser-off time at a Monolith NT.115 device (NanoTemper). Measured fluorescence (F) was normalised (Fhot/Fcold = Fsteady state/Finitial state, Fig 3). Values of thermophoresis + T-jump were related to average of each measurement row (16 capillaries). Final values are given as ‰.
Fig 4 The Scaff10 derivative Scaff10-8 binds to RhoA but not to the DHPH domain of AKAP-Lbc. (A-D) Microscale thermophoresis (MST) takes advantage of the phenomenon of directed movement of particles in a temperature gradient. Binding events lead to changes in the hydration shell of biomolecules and a relative change of movement of the molecular complex along a temperature gradient. Using such changes, binding affinities can be determined. MST assays were carried out with (A) the recombinant DHPH domain of AKAP-Lbc fused with GFP and RhoA as a ligand and (B) fluorescent 647-RhoA and the His-tagged AKAP-Lbc/DHPH domain as a ligand. (C) MST assays for the analysis of the binding of Scaff10-8 to 647-RhoA. Upper panels: The concentration of fluorescent 647-RhoA remained constant and Scaff10-8 (left) and Scaff10-7 as a negative control (right) were titrated in increasing concentrations. Lower panels: Values of fluorescence corresponding to upper panels. (D) MST assay showing no binding of Scaff10-8 or Scaff10-7 to GFP-DHPH. Upper panels: The concentration of fluorescent GFP-AKAP-Lbc/DHPH remained constant and Scaff10-8 (left) and Scaff10-7 (right) were titrated in increasing concentrations. Lower panels: Values of fluorescence corresponding to upper panels. […] F norm = normalized fluorescence (fluorescence steady state/fluorescence initial state) indicated in ‰. n = 3–5. Mean ± SEM. […] The ligand protein named in each panel heading is used as the substance label, and it is uncertain whether these count as substances.
Background: MST reads how a fluorescent partner responds to local heating, with and without ligand.

Series [4] has as its system AQP2 localization in MCD4 cells. As to the kind of experiment: Immunofluorescence microscopy of AQP2 in MCD4 cells. Type of series: cell-based, mouse. Particulars: 30 μM.
[5] abbreviates: 0.3 % DMSO final, read-out: Solubility 0.3 % DMSO.
[6] abbreviates: 2 % DMSO final, read-out: Solubility 2 % DMSO.

Where “and” joins values, the source holds several entries; their conditions need not be identical. Equal entries are not always repeated. Entries after “also recorded” stand apart in the source; their conditions may differ. Where two headings read alike, the source gives them in different places. A value given as a limit tells only on which side of the number the result lay.

T1 sequence (P61586 whole entry, the tested form may be a part): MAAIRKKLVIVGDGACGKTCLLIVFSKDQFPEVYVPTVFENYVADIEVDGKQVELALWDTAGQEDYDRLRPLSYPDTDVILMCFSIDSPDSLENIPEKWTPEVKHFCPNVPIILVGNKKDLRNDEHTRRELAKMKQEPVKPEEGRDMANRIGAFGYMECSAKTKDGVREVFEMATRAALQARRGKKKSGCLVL
T2 sequence (P61586 whole entry): as the sequence (P61586 whole entry, the tested form may be a part) above

In the case of `COc1ccc(-c2coc3cc4oc(=O)c(C)c(C)c4cc23)cc1` [Scaff10, 3-(4-Methoxyphenyl)-5,6-dimethyl-furo[3,2-g]chromen-7-one], the solubility in series [1] (setting [5]) is 75 µM; in series [1] (setting [6]) it was 85 µM. The “inhibitory effect on the AKAP-Lbc/DHPH-RhoA interaction” value in series [2] (HTRF; result in words) is recorded as “no inhibitory effect”. Also, the half-inhibitory concentration (IC50) in series [2] (read-out: IC50 ± SEM; Table 1; HTRF; '-' = no IC50, inactive (n.d. is used separately in S3 Table)) was more than 200 µM.

With `CCOC(=O)CCc1c(C)c2ccc(OCC(=O)c3ccc(OC)cc3)cc2oc1=O` [Scaff10-7, Ethyl 3-[7-[2-(4-methoxyphenyl)-2-oxo-ethoxy]-4-methyl-2-oxo-chromen-3-yl]propanoate], the “binding to 647-RhoA” value in series [3] (result in words) is “did not bind”. Besides, the solubility is 40 µM in series [1] (setting [5]) and 70 µM in series [1] (setting [6]). For the same molecule, the “localization of AQP2 in MCD4 cells” value in series [4] was “did not affect the location of AQP2”. In series [2] (HTRF; result in words), the “inhibitory effect on the AKAP-Lbc/DHPH-RhoA interaction” value is “did not interfere; also recorded: without inhibitory effects”. In series [2] (Table 1; HTRF; '-' = no IC50, inactive (n.d. is used separately in S3 Table); read-out: IC50 ± SEM), the 50% inhibitory concentration (IC50) is more than 200 µM.

Take `COc1ccc(-c2coc3cc4oc(=O)c(CCC(=O)O)c(C)c4cc23)cc1` [Scaff10-8, 3-[3-(4-Methoxyphenyl)-5-methyl-7-oxo-furo[3,2-g]chromen-6-yl] propanoic acid]: the Kd in series [3] (KD for binding to 647-RhoA, mean ± SEM, n = 3–5) is 20 µM and 20.2 µM. The solubility in series [1] (setting [5]) stood at 30 µM; in series [1] (setting [6]), 50 µM. Besides, the “localization of AQP2 in MCD4 cells” value in series [4] is recorded as “induced cAMP-independently the translocation of AQP2 to the plasma membrane”. In series [2] (IC50 ± SEM, Table 1; HTRF; '-' = no IC50, inactive (n.d. is used separately in S3 Table)), the IC50 amounted to 34.1 ± 1.7 µM.

Source of the values: PMC5786306, “An AKAP-Lbc-RhoA interaction inhibitor promotes the translocation of aquaporin-2 to the plasma membrane of renal collecting duct principal cells” (PLoS ONE, 2018).
